Results from patent publication US20250049778A1, “CRYSTALLINE FORM OF GLP-1 RECEPTOR AGONIST AND PREPARATION METHOD THEREFOR” (JIANGSU HENGRUI PHARMACEUTICALS CO., LTD., priority 2021, published 2025).

Experiments:
Assay type in all cases: physicochemical
[1] = Stability of crystal forms placed open under illumination, high temperature and high humidity, 30 days; conditions: for Physical and chemical stability (summary): illumination, 40° C. and 60° C., 75% RH and 92.5% RH
From the text: The sampling and investigation period was 30 days.

[2] = Hygroscopicity of crystal forms by dynamic vapor sorption (DVS) at 25° C.; conditions: for Crystal form after DVS: two cycles
Procedure: Surface Measurement Systems advantage 2 is used for detection at 25° C. The humidity is 50%-95%-0%-95%-50% RH. The step is 10%. The criterion is that the mass change dM/dT for each step is less than 0.002%. TMAX is 360 min. Two cycles are carried out.
Surface Measurement Systems intrinsic DVS was used at 25° C. The observed humidity ranged from 0% to 95%. The step was 10%. The criterion was that the mass change dM/dT for each step was less than 0.002%. TMAX was 360 min. Two cycles were carried out.

[3] = Long-term/accelerated stability, sealed with aluminum foil bag
From the text: The results were as shown below.

[4] = Illumination (4500 Lux), 5 days
[5] = Illumination (4500 Lux), 10 days
[6] = Illumination (4500 Lux), 30 days

In the case of O=C(O)c1ccc2nc(CN3CCC(c4cccc5c4O[C@@H](c4ccc(Cl)cc4F)CO5)CC3)n(C[C@@H]3CCO3)c2c1 [Crystal form A of Compound A, 2-((4-((S)-3-(4-chloro-2-fluorophenyl)-2,3-dihydrobenzo[b][1,4]dioxan-5-yl)piperidin-1-yl)methyl)-1-(((S)-oxetan-2-yl)methyl)-1H-benzo[d]imidazole-6-carboxylic acid], the Purity % ([1]; 40° C., 5 days) is reported as 98.8%, the Purity % ([1]; 40° C., 10 days) is reported as 98.8% and the Purity % ([1]; 40° C., 30 days) is reported as 98.8%. It also gave a Purity % ([1]; 60° C., 5 days) of 98.8%, a Purity % ([1]; 60° C., 10 days) of 98.7% and a Purity % ([1]; 60° C., 30 days) of 98.8%. For the same compound, the Purity % ([1]; 75% RH, 5 days) was 98.7%, the Purity % ([1]; 75% RH, 10 days) was 98.7% and the Purity % ([1]; 75% RH, 30 days) was 98.7%. For the same compound, the Purity % ([1]; 92.5% RH, 5 days) was 98.8%, the Purity % ([1]; 92.5% RH, 10 days) was 98.7% and the Purity % ([1]; 92.5% RH, 30 days) was 98.8%. It also gave a Purity % [1, 4] of 98.7%, a Purity % [1, 5] of 98.7% and a Purity % [1, 6] of 98.8%. For the same compound, the Purity % ([1]; Initial condition, 0 days) was 98.7%, the “Physical and chemical stability (summary)” value ([1]; 30 days) was “good physical and chemical stability” and the “Hygroscopic weight gain 0.0% RH to 80.0% RH” value [2] was 0.65%. For the same compound, the “Crystal form after DVS” value [2] was “Unchanged”, the Purity % ([3]; 25° C./60% RH, 1 month) was 99.5% and the Purity % ([3]; 25° C./60% RH, 3 months) was 99.5%. The Purity % ([3]; 25° C./60% RH, 6 months) was 99.5%, the Crystal form ([3]; 25° C./60% RH, up to 6 months) was “Unchanged” and the Purity % ([3]; 40° C./75% RH, 1 month) was 99.5%. The Purity % ([3]; 40° C./75% RH, 3 months) was 99.5%, the Purity % ([3]; 40° C./75% RH, 6 months) was 99.5% and the Crystal form ([3]; 40° C./75% RH, up to 6 months) was “Unchanged”. The Purity % ([3]; Initial condition) was 99.5% and the “Physical and chemical stability (summary)” value ([3]; placed for 6 months under long-term accelerated conditions) was “good physical and chemical stability”.
In the case of O=C(O)c1ccc2nc(CN3CCC(c4cccc5c4O[C@@H](c4ccc(Cl)cc4F)CO5)CC3)n(C[C@@H]3CCO3)c2c1 [Crystal form D of Compound A, 2-((4-((S)-3-(4-chloro-2-fluorophenyl)-2,3-dihydrobenzo[b][1,4]dioxan-5-yl)piperidin-1-yl)methyl)-1-(((S)-oxetan-2-yl)methyl)-1H-benzo[d]imidazole-6-carboxylic acid], the Purity % ([1]; 40° C., 5 days) is reported as 98.4%, the Purity % ([1]; 40° C., 10 days) is reported as 98.5% and the Purity % ([1]; 40° C., 30 days) is reported as 98.5%. For the same compound, the Purity % ([1]; 60° C., 5 days) was 98.5%, the Purity % ([1]; 60° C., 10 days) was 98.6% and the Purity % ([1]; 60° C., 30 days) was 98.6%. For the same compound, the Purity % ([1]; 75% RH, 5 days) was 98.5%, the Purity % ([1]; 75% RH, 10 days) was 98.6% and the Purity % ([1]; 75% RH, 30 days) was 98.5%. The Purity % ([1]; 92.5% RH, 5 days) was 98.6%, the Purity % ([1]; 92.5% RH, 10 days) was 98.6% and the Purity % ([1]; 92.5% RH, 30 days) was 98.5%. It also gave a Purity % [1, 4] of 98.5%, a Purity % [1, 5] of 98.6% and a Purity % [1, 6] of 98.6%. The Purity % ([1]; Initial condition, 0 days) was 98.5%, the “Physical and chemical stability (summary)” value ([1]; 30 days) was “good physical and chemical stability” and the “Hygroscopic weight gain 0.0% RH to 80.0% RH” value [2] was 1.95%. For the same compound, the “Crystal form after DVS” value [2] was “Unchanged”, the Purity % ([3]; 25° C./60% RH, 1 month) was 98.6% and the Purity % ([3]; 25° C./60% RH, 2 months) was 98.6%. For the same compound, the Purity % ([3]; 25° C./60% RH, 3 months) was 98.5%, the Crystal form ([3]; 25° C./60% RH, up to 3 months) was “Unchanged” and the Purity % ([3]; 40° C./75% RH, 1 month) was 98.6%. The Purity % ([3]; 40° C./75% RH, 2 months) was 98.4%, the Purity % ([3]; 40° C./75% RH, 3 months) was 98.3% and the Crystal form ([3]; 40° C./75% RH, up to 3 months) was “Unchanged”. For the same compound, the Purity % ([3]; Initial condition) was 98.5% and the “Physical and chemical stability (summary)” value ([3]; placed for 3 months under long-term accelerated conditions) was “good physical and chemical stability”.
